Assay results published in US20130005759A1, “SMALL MOLECULE MODIFIERS OF MICRORNA MIR-122” (North Carolina State University, priority 2010, published 2013).
In the oligonucleotide strings, read from the 5' end, every base follows the letter of its sugar. An asterisk marks phosphorothioate; unmarked linkages are phosphodiester. Other units and linkages are bracketed, terminal groups are in braces. A string of capitals states the bases alone. m = 2'-O-methyl

Assays:
miR-122 = assay: psiCHECK-miR122 dual luciferase reporter assay in Huh7 cells; format: cell-based, human; conditions: for miR-122 inhibitory activity (structure-activity, in words) / miR-122 activation (structure-activity, in words): Huh7, 10 μM; for miR-122 inhibitory activity (structure-activity, in words): relative to parent inhibitor 1 or 2; for miR-122 activation (structure-activity, in words): relative to parent activator 3
Text: A miRNA small molecule modifier screen for miR-122 was developed based on the psiCHECK-2 (Promega) reporter plasmid (FIG. 9). This construct expresses both Renilla luciferase as well as firefly luciferase, allowing for the normalization of the signal to account for differential cellular viability and variability in transfection efficiency. The miR-122 target sequence was inserted downstream of the Renilla luciferase gene, between the PmeI and SgfI restriction sites. In another aspect of the invention, plasmids expressing luciferase or another reporter gene such as for example, fluorescent reporters (GFP and variants thereof, DsRed, etc.) or beta-galactosidase can be used to screen for small molecule modifiers of miR-122. The mi-122 target sequence may be upstream or downstream of the reporter gene. Multiple miR-122 target sites can also be inserted into or be present in the plasmid.
The presence of mature miR-122 will lead to a decrease in the Renilla luciferase signal (FIG. 1a). The ability to detect endogenous miR-122 was validated by transfecting the generated psiCHECK-miR122 construct into Huh7 and HeLa cells. After 48 hour incubation, the cells were assayed using a Dual Luciferase Assay Kit (Promega). In another embodiment, the cells can be incubated for about 24-96 hours. The Dual Luciferase Assay Kit provides a means to measure the amount of the luciferases by generating a luminescent signal. Using this assay the luminescence from the firefly luciferase reaction may be quenched while the luminescent reaction of Renilla luciferase can be activated. Other assays and procedures that can determine the amount of the one or more reporter genes or miR-122 expression, activity or function can be used. An example of another assay is Dual-Glo Assay (Promega).
The psiCHECK-miR122 vector was then employed in a small molecule screen in Huh7 cells to discover modifiers of miR-122 function. Other cells that express miR-122 such as HepG2 and Hep3B can be used in addition to or instead of Huh7 cells. An increase in the relative Renilla luciferase signal indicates a miR-122 inhibitor, while a reduction in the luciferase signal indicates a miR-122 activator. A genus of compounds that may have activity as modifiers of miR122 function are the Diversity Set II (1364 compounds) from the NCI Developmental Therapeutics Program was screened using Huh7 cells containing the psiCHECK-miR122 reporter. Cells were exposed to the small molecules and the relative luciferase signal was measured after 48 hours using a Dual Luciferase Assay Kit (Promega). In another embodiment the cells can be exposed to the small molecules for about 24-96 hours. As explained above, other assays and procedures that can determine the amount of the one or more reporter genes or miR-122 expression, activity or function can be used.
The analogs were screened for activity using the previously described miR-122 assay. All cells were treated with 10 μM of a compound and experiments were performed in triplicate to ensure statistical validity. The data was normalized to a 1% DMSO control and is reported in relative luciferase units (RLU). The standard deviation was calculated from three independent assays. Some analogs of miR-122 inhibitor compound 1 are:
Huh7 and HeLa cells were transfected at approximately 60% confluency with either the psiCHECK-Control plasmid (the original psiCHECK-2 plasmid containing no known miRNA binding site) or the psiCHECK-miR122 plasmid (0.5 μg) using X-tremGENE transfection reagent (3:2 reagent/DNA ratio; Roche) in Opti-Mem media (Invitrogen). All transfections were performed in triplicate for statistical analysis. The cells were incubated at 37° C. for 4 hours followed by the replacement of transfection media with standard DMEM growth media. After 48 hours of incubation the media was removed, cells were lysed and assayed with a Dual Luciferase Assay Kit (Promega) using a Wallac VICTOR^3V luminometer with a measurement time of 1 s and a delay time of 2 s. […]

[1] = system: psiCHECK-control vector (no miRNA target sequence); assay: psiCHECK-control vector luciferase counter-assay in Huh7 cells; format: cell-based, human; conditions: Huh7, 10 μM
Text: (FIG. 3). […] The relative luciferase units were normalized to the corresponding DMSO signals. […] This confirms that compound 2 and the antagomir have similar effects on the reduction of miR-122 function in Huh7 cells.
Compounds which elicited greater than a 5-fold increase of the relative luciferase units signal compared to the DMSO control were then re-assayed in triplicate to confirm the validity of the hit compound. Upon secondary validation of miR-122 inhibition, identical assays were repeated with the psiCHECK-Control vector to ascertain that the effect is specific to the miR-122 pathway, and not simply affecting the Renilla gene. In order to assess the relative degree of miR-122 inhibition, Huh7 cells were also co-transfected with either the psiCHECK-Control plasmid or the psiCHECK-miR122 plasmid (0.5 μg) and a miR-122 2′-OMe PS antagomir (50 pmol; 5′ […] (SEQ ID NO:4) 3′; IDT DNA)(2) using the X-tremGENE transfection reagent (Roche Applied Science, 4:2 reagent/DNA ratio). The transfection media was replaced with standard DMEM growth media after 4 hours and the cells were incubated for 48 hours prior to analysis with a Dual Luciferase Assay Kit (FIG. 3).

[2] = system: hepatitis C virus (HCV) genotype 1a H77c RNA; assay: HCV replication in Huh7 cells (HCV RNA by quantitative RT PCR); format: cell-based; conditions: Huh7, 10 μM (antagomir transfected), 48 hours
Protocol: Aberrantly regulated miR-122 is involved in the development of heptocellular carcinoma (HCC). miR-122 is a cellular component required by hepatitis C virus (HCV) for viral replication. […] Due to the efficient down-regulation of miRNA-122 by the small molecule inhibitors 1 and 2, both compounds were tested for their ability to inhibit HCV replication in Huh7 cells. The pHtat2Neo/QR/KR/FV/SI plasmid (provided by Dr. Stanley Lemon of University of Texas Medical Branch (UTMB)) was used to generate genotype 1a H77c RNA, which was subsequently transfected into Huh7 cells.^16 The cells were then either transfected with a miR-122 antagomir (positive control), or treated with compounds 1 and 2 (10 μM), or DMSO (negative control). After 48 hours, total RNA was isolated and HCV RNA levels were measured by quantitative RT PCR (FIG. 7). In agreement with previous reports, the antagomir reduced HCV RNA levels to 20%.^6 Moreover, the small molecule miR-122 inhibitors 1 and 2 elicited a reduction in viral load to 48% and 47%, respectively.
The pHtat2Neo/QR/KR/FV/SI plasmid (provided by Dr. Stanley Lemon)^16 was linearized using XbaI (10 units, 50 μL reaction; New England Biolabs), followed by transcription with T7 RNA Polymerase (6 h, 37° C.), and purification on Microcon 10 columns. Huh7 cells were then grown to 60% confluency in a 6 well plate and transfected with 1 μg RNA using X-tremGENE transfection reagent (Roche Applied Science, 3:2 reagent/RNA ratio) in Opti-Mem media (Invitrogen). After a 4 hour incubation at 37° C., the transfection media was removed and replaced with standard growth media (2 mL) supplemented with 10 μM of 1 or 2 (1% DMSO final concentration). All experiments were conducted in triplicate for statistical validation. […] Quantitative RT-PCR was then performed as previously described using the general HCV RT-PCR Primers (5′: […] 3′ (SEQ ID NO:7) and 5′ […] 3′) (SEQ ID NO:8) and GADPH primers (5′ […] 3′ (SEQ ID NO:9) and 5′ […] 3′) (SEQ ID NO:10) as a standard control.

Question: `O=C(NCc1ccc2ccccc2c1)c1ccc(Cl)cc1Cl` [1e] was tested. Which “miR-122 inhibitory activity (structure-activity, in words)” value (“miR-122 inhibitory activity” below) (miR-122) did it give?
Answer: virtually complete loss of miR-122 inhibitory activity

Question: For `O=C(NCc1ccc2ccccc2c1)c1ccc(Cl)cc1Cl` [1f], which “miR-122 inhibitory activity” value (miR-122) is on record?
Answer: virtually complete loss of miR-122 inhibitory activity

Question: With `O=C(Nc1ccccc1)c1ccc(Cl)cc1Cl` [1g, 2,4-Dichloro-N-phenylbenzamide] as the compound, how does the “miR-122 inhibitory activity” value (miR-122) read?
Answer: complete loss of miR-122 inhibitory activity

Question: `Nc1ccc(NC(=O)c2ccc(Cl)cc2Cl)cc1` [1h, N-(4-Aminophenyl)-2,4-dichlorobenzamide] was tested. Which “miR-122 inhibitory activity” value (miR-122) did it give?
Answer: complete loss of miR-122 inhibitory activity

Question: `O=C(Nc1ccc(I)cc1)c1ccc(Cl)cc1Cl` [1i, 2,4-Dichloro-N-(4-iodophenyl)benzamide] was tested. Which “miR-122 inhibitory activity” value (miR-122) did it give?
Answer: complete loss of miR-122 inhibitory activity

Question: How did the “miR-122 inhibitory activity” value (miR-122) turn out when `O=C(NCc1ccc2ccccc2c1)c1ccc(Cl)cc1Cl` [1m] was run?
Answer: substantial loss of activity

Question: How did the “miR-122 inhibitory activity” value (miR-122) turn out when `O=S(=O)(c1ccc2c(c1)CCCN2)N1CCCc2ccccc21` [2b, 6-(3,4-Dihydroquinolin-1(2H)-ylsulfonyl)-1,2,3,4-tetrahydroquinoline] was run?
Answer: loss of activity

Question: `O=S(=O)(Nc1ccccc1)c1ccc2c(c1)CCCN2` [2c, N-Phenyl-1,2,3,4-tetrahydroquinoline-6-sulfonamide] was tested. Which “miR-122 inhibitory activity” value (miR-122) did it give?
Answer: Activity was maintained

Question: And the “relative luciferase units (RLU) normalized to a DMSO control” value (miR-122; Huh7, psiCHECK-miR122, 10 μM, mean ± SD of three independent assays)?
Answer: 9.9±3.1 RLU

Question: Which “miR-122 inhibitory activity” value (miR-122) does the source give for `Nc1ccc(NS(=O)(=O)c2ccc3c(c2)CCCN3)cc1` [2d, N-(4-Aminophenyl)-1,2,3,4-tetrahydroquinoline-6-sulfonamide] here?
Answer: lost

Question: `CN(C)CCN1C(=O)c2cccc3cccc(c23)C1=O` [3a, 2-(2-(Dimethylamino)ethyl)-1H-benzo[de]isoquinoline-1,3(2H)-dione] was tested. Which “miR-122 activation (structure-activity, in words)” value (“miR-122 activation” for short) (miR-122) did it give?
Answer: retention of activity

Question: For `NCCN1C(=O)c2cccc3cc(N)cc(c23)C1=O` [3c, 5-Amino-2-(2-aminoethyl)-1H-benzo[de]isoquinoline-1,3(2H)-dione], which “miR-122 activation” value (miR-122) is on record?
Answer: increasing loss of activity

Question: With `Nc1cc2c3c(cccc3c1)C(=O)N(Cc1ccc3ccccc3c1)C2=O` [3g, 5-amino-2-(naphthalen-2-ylmethyl)-1H-benzo[de] isoquinoline-1,3(2H)-dione] as the compound, how does the “miR-122 activation” value (miR-122) read?
Answer: complete loss of miR-122 activation

Question: “antagomir: miR-122 2′-OMe PS antagomir, 5′ ACAAACACCAUUGUCACACUCCA 3′ (SEQ ID NO:4), positive control (mA*mC*mA*mA*mA*mC*mA*mC*mC*mA*mU*mU*mG*mU*mC*mA*mC*mA*mC*mU*mC*mC*mA) [reference compound]” was tested. Which “normalized Renilla luciferase signal with psiCHECK-control vector” value [1] did it give?
Answer: no statistically significant alteration

Question: And the “HCV RNA levels / viral load reduced to” value [2]?
Answer: 20%

Question: What about the “Renilla luciferase expression with psiCHECK-miR122 (in words)” value (miR-122; Huh7, 10 μM (antagomir transfected), normalized to DMSO) of the same compound?
Answer: significant increase
